Three compounds from PMC10856415, “Lactoferricin B Combined with Antibiotics Exhibits Leukemic Selectivity and Antimicrobial Activity” (Molecules, 2024) can be followed below.

Square brackets hold non-standard residues; d marks the D form. Ends that are not written are not given here. Peptide text beside a SMILES is read from it. * marks the point of attachment. X1 = N[C@@H](CS*)C(=O)N1CCN(c2cc3c(cc2F)c(=O)c(C(=O)O)cn3C2CC2)CC1; X2 = O=C(Cn1cc(CC(O)(Cn2cncn2)c2ccc(F)cc2F)nn1)*; Nle = CCCC[C@H](N)C(=O)O

The test system of series [1] is HL60. To be noted: HL60, CM-H2DCFDA, compound at 2-fold IC90.
Experimental: (§7) Cell lines were cultured as mentioned above and seeded in Petri dishes (Falcon, Cary, NC, USA) in the amount of 25 × 10^3 per Φ35 dish. HEK293 cells were allowed to attach overnight. ROS generation potential was tested for selected compounds after 0.25, 0.5, 1, 3, 6, and 24 h of incubation. The CM-H2DCFDA molecular probe (Thermo Fisher Scientific, Waltham, MA, USA) at a final concentration of 1 µM was added 15 min before the analysis. After staining, HEK293 cells were trypsinized, harvested, and suspended in fresh media. The 7AAD (Cat. A9400, Sigma Aldrich) was added just before analysis. Analyses were carried out with a Guava EasyCyte flow cytometer (Merck-Millipore, USA). Flow cytometry data were processed with Flowing Software 2.5.1 (Turku Bioscience, Turku, Finland).
Series [2] concerns HEK293. To be noted: HEK293, CM-H2DCFDA, compound at 2-fold IC90.
Experimental: as §7
For series [3], the system named is HL60. The series is described as follows: MTT drug sensitivity assay on HL60. Format: cell-based, human. Particulars: normalized to EC50. On the procedure: (§1) As mentioned in [61], we followed detailed procedures, including the composition of media and growth conditions, for the application of conjugate 4 on both HL60 and HEK293 in the MTT drug sensitivity assay. The initial cellular density for cultures seeded in a 96-well plate was 5000 cells/well for HL60 and 1500 cells/well for HEK293.
(§2) Supplementary Table S1. […] 4. […]
(§3) of incubation; The initial cellular density for HL60 was 5,000 cells, and for HEK293, it was 1,500 cells […]
(§4) Supplementary Table S2. […] The conversion from IC50 to EC50 was performed following the method outlined in [62]; For IC50 values, please refer to Supplementary […]
(§5) For MIC and IC50 data, please also refer to Ptaszyńska et al., 2019. Abbreviations: S. e. - Staphylococcus epidermidis ATCC 12228; B. s. - Bacillus subtilis ATCC 6633; S. a. - Staphylococcus aureus ATCC 25923; P. a - Pseudomonas aeruginosa ATCC 27853; B. c - Bacillus cereus PCM 2003; C. k. - Candida krusei DSM 6128; C. p. - Candida parapsilosis DSM 5784; C. a. - Candida albicans ATCC 10231; C. g. - Candida glabrata DSM 11226; C. t. - Candida […]

In series [4] the test system is HEK293. The series is described as follows: MTT drug sensitivity assay on HEK293. Format: cell-based, human. Particulars: normalized to EC50. On the procedure:
as §1, §2, §3, §4, §5

In series [5] the test system is BT20. Briefly: Cell proliferation (EC50, selectivity index) on BT20. The series is classed as cell-based, human. To be noted: normalized to EC50. The protocol: (§6) To evaluate their effect on leukemia, cancer, and non-cancer cells, the Malignancy Selectivity Index was calculated as MSI = EC50 (non-cancerous)/EC50 (leukemic or cancerous) or EC50 (leukemic or cancerous)/EC50 (leukemic or cancerous).
as §2, §3, §4, §5

Series [6] deals with A549. Briefly: Cell proliferation (EC50, selectivity index) on A549. Format: cell-based, human. Particulars: normalized to EC50. The protocol:
as §6, §2, §3, §4, §5

Series [7] deals with Candida krusei DSM 6128. To be noted: C. krusei, relative to IC50 of HL60.
Series [8] has as its system HL60. Briefly: Mitochondrial potential, DiOC6(3) flow cytometry in HL60. The series is classed as cell-based, human. Particulars: HL60 stained with DIOC6(3). The protocol:
HL60 was incubated with 100 nM 3,3′-dihexyloxacarbocyanine iodide (DiOC6(3)) (Cat. D273, Thermo Fisher Scientific). Cells were stained under culture conditions for 15 min, washed with prewarmed PBS, and examined by Guava EasyCyte flow cytometer (Merck-Millipore, USA). The results of flow cytometry were analyzed with Flowing Software 2.5.1 (Turku Bioscience, Finland).

Series [9] deals with S. aureus. The series is described as follows: Switch of S. aureus asymmetric phosphatidylserine location (Annexin V / 7AAD). Format: cell-based, Staphylococcus aureus. Particulars: MIC concentrations, first hour to 6 h. On the procedure:
Bacterial cultures with an […], as utilized in bacteriostatic experiments (Ptaszyńska et al., 2019 [16, 48]), were plated on Petri dishes. Compounds were added at the MIC concentration to the test sample, while no compound was added to the negative control. After an appropriate incubation period (45 min, […]), samples were collected and promptly washed with PBS. The pellet was then suspended in 100 μL of annexin binding buffer (BioSource International, Camarillo, CA, USA), which included 0.25 μL of 7-AAD (7-aminoactinomycin D, 1 mg/mL, Sigma) and 1 μL of Annexin–FITC (Thermo Fisher, Waltham, MA, USA). Following the addition of 400 μL of annexin binding buffer, the samples were left in the dark for 15 min. Subsequently, the samples were placed on ice and immediately read by the Guava EasyCyte (Merck-Millipore, Burlington, MA, USA). Flow results were analyzed with the free online software https://floreada.io/ (accessed on 30 November 2023; the last update was carried out in June 2023).

Take `CSCC[C@H](NC(=O)[C@H](CCCNC(=N)N)NC(=O)[C@H](Cc1c[nH]c2ccccc12)NC(=O)[C@H](CCC(N)=O)NC(=O)[C@H](Cc1c[nH]c2ccccc12)NC(=O)[C@H](CCCNC(=N)N)NC(=O)[C@H](CCCNC(=N)N)NC(=O)[C@H](CS)NC(=O)[C@H](CCCCN)NC(=O)[C@H](Cc1ccccc1)NC(=O)Cn1cc(CC(O)(Cn2cncn2)c2ccc(F)cc2F)nn1)C(N)=O` (stereo partly shown) [conjugate 4] (X2-FKCRRWQWRM-NH2; N-terminus assumed): the “Levels of cellular ROS” value in series [1] and in series [2] was “negligible” throughout.
With “conjugate 1: covalently bonded LfcinB and LVX (FKCRRWQWRMKKLGAPSITCVRRAF; ends and bridges not checked; also: covalently bonded to levofloxacin, site not given here; UniProt P24627 36-60, looked up)”, the “Malignancy Selectivity Index, HL60 section, A549 column” value in series [3] (A549 vs HL60) is listed as 8.9. The “Malignancy Selectivity Index, HL60 section, BT20 column” value in series [3] (BT20 vs HL60) is 3.0. The “Malignancy Selectivity Index, HL60 section, HEK293 column” value in series [3] (HEK293 vs HL60) stood at 39.4. In addition, the “Malignancy Selectivity Index, HEK293 section, A549 column” value in series [4] (A549 vs HEK293) worked out at 0.2. The “Malignancy Selectivity Index, HEK293 section, BT20 column” value in series [4] (BT20 vs HEK293) is listed as 0.1. Besides, the “Malignancy Selectivity Index, BT20 section, A549 column” value in series [5] (A549 vs BT20) is reported as 2.9. Moreover, the “Malignancy Selectivity Index, BT20 section, HEK293 column” value in [5] (HEK293 vs BT20) stood at 13.1. Also, the “Malignancy Selectivity Index, BT20 section, HL-60 column” value in [5] (HL-60 vs BT20) turned out to be 0.3. For the same compound, the “Malignancy Selectivity Index, A549 section, BT20 column” value in series [6] (BT20 vs A549) was 0.3. Also, the “Malignancy Selectivity Index, A549 section, HEK293 column” value in series [6] (HEK293 vs A549) is 4.4. The “Malignancy Selectivity Index, A549 section, HL-60 column” value in [6] (HL-60 vs A549) is given as 0.1. The “FSI (Fungistatic Selectivity Index)” value in [7] turned out to be 2.9.
Consider `CCCC[C@H](NC(=O)[C@H](CCCNC(=N)N)NC(=O)[C@H](Cc1c[nH]c2ccccc12)NC(=O)[C@H](CCC(N)=O)NC(=O)[C@H](Cc1c[nH]c2ccccc12)NC(=O)[C@H](CCCNC(=N)N)NC(=O)[C@H](CCCNC(=N)N)NC(=O)[C@H](CSSC[C@H](N)C(=O)N1CCN(c2cc3c(cc2F)c(=O)c(C(=O)O)cn3C2CC2)CC1)NC(=O)[C@H](CCCCN)NC(=O)[C@@H](N)Cc1ccccc1)C(N)=O` [conjugate 3] (H-FKC(X1)RRWQWR[Nle]-NH2; N-terminus assumed), for which, in series [8], the “Impact on mitochondrial potential” value is on record as “minimal impact”. For the same compound, in [9], the “Reduction in number of events (7AAD vs. Annexin V) compared to LfcinB” value was “more pronounced”.
